Test results from patent US7470686B2, “Method of inhibiting the expression and/or the activity of JNK” (Laboratoires Serono SA, priority 1999, dated 2008).
Structures can show the parent of a compound that is named as a salt.

Key:
[1] = biological target: recombinant, pre-activated GST-JNK3 (Homo sapiens, UniProt P53779); assay: JNK3 enzyme assay (SPA, GST-c-Jun phosphorylation); assay type: biochemical; settings: 2 μM ATP, 120 min at R.T
Experimental: (§1) JNK2 and 3 enzyme assay: […] The incubation is performed for 120 min. at R.T and stopped upon addition of 200 μl of a solution containing 250 μg of Streptavidine-coated SPA beads (Amersham, Inc.)*, 5 mM EDTA, 0.1% Triton X-100 and 50 μM ATP, in phosphate saline buffer. After incubation for 60 minutes at RT, beads are sedimented by centrifugation at 1500×g for 5 minutes, resuspended in 200 μl of PBS containing 5 mM EDTA, 0.1% Triton X-100 and 50 μM ATP and the radioactivity measured in a scintillation β counter, following sedimentation of the beads as described above. By substituting GST-c Jun for biotinylated GST-1ATF2 or myelin basic protein, this assay can be used to measure inhibition of preactivated p38 and ERK MAP Kinases, respectively.

[2] = biological target: recombinant, pre-activated GST-JNK2 (Homo sapiens, UniProt P45984); assay: JNK2 enzyme assay (SPA, GST-c-Jun phosphorylation); assay type: biochemical; settings: 2 μM ATP, 120 min at R.T
Experimental: as §1

[3] = biological target: ERK2 (Homo sapiens, UniProt P28482); assay: ERK2 enzyme assay (SPA, myelin basic protein substrate); assay type: biochemical
Experimental: as §1

[4] = biological target: preactivated p38 (Homo sapiens, UniProt Q16539); assay: p38 enzyme assay (SPA, GST-ATF2 substrate); assay type: biochemical
Experimental: The incubation is performed for 120 min. at R.T and stopped upon addition of 200 μl of a solution containing 250 μg of Streptavidine-coated SPA beads (Amersham, Inc.)*, 5 mM EDTA, 0.1% Triton X-100 and 50 μM ATP, in phosphate saline buffer. After incubation for 60 minutes at RT, beads are sedimented by centrifugation at 1500×g for 5 minutes, resuspended in 200 μl of PBS containing 5 mM EDTA, 0.1% Triton X-100 and 50 μM ATP and the radioactivity measured in a scintillation β counter, following sedimentation of the beads as described above. By substituting GST-c Jun for biotinylated GST-1ATF2 or myelin basic protein, this assay can be used to measure inhibition of preactivated p38 and ERK MAP Kinases, respectively.

[5] = test system: JNK (Hlr c-Jun HeLa cells); assay: C-Jun reporter assay; assay type: cell-based; settings: Homo sapiens, MEKK1-transfected Hlr c-Jun HeLa cells, luciferase reporter
Experimental: Hlr c-Jun HeLa cells are cultured in DMEM High Glc supplemented with 10% FCS (Sigma), 2 mM Glutamine (Gibco), P/S, Hygromycin b 100 µg/mL and G418 250 μg/mL
The cells from flasks of near-confluent cultures are detached and disaggregated by treatment with trypsin as described above. The cells are resuspended in culture medium and counted. The cell suspension are diluted with medium to give about 3.5×10^6 cells/mL and […] of cell suspension are put onto 2 10 cm culture dishes containing 9 mL of culture medium. The plates are incubated at 37° C. in a humidified atmosphere of 5% CO2 in air
• Control 0.2 μg pTK Renilla, 5.8 μg pBluescript KS, 500 μl OPTIMEM (GIBCO), 18 μl Fugene 6 • Induced 0.1 μg pMEKK1, 0.2 μg pTK Renilla, 5.7 μg pBluescript KS, 500 μl OPTIMEM (GIBCO), 18 μl Fugene 6 30′ RT
The transfection mixture is added to the plated cells. The plates are incubated over night at 37° C. in a humidified atmosphere of 5% CO2 in air
A 96 wells plate containing 100 μl of culture medium per well is prepared
Compound: 2 μl of Hit compound stock dilution are added to the 100 μl (in triplicate). The transfected cells are trypsinised and re-suspend in 12 mL of culture medium. 100 μl of the dilution are added to each of the 96 wells plate. The plate is incubated over night at 37° C. in a humidified atmosphere of 5% CO2 in air
The medium is removed from the plate and the cells washed two times with 100 μl PBS Completely remove the rinse solution before applying PLB reagent. Dispense into each culture well […] of 1×PLB. Place the culture plates on a rocking platform or orbital shaker with gentle rocking/shaking to ensure complete and even coverage of the cell monolayer with 1×PLB. Rock the culture plates at room temperature for 15 minutes. Transfer 20 μl of the lysate into a white opaque 96 wells plate. Read in a luminometer. • Inject 50 μl of Luciferase Assay Reagent II wait 5″, read 10″ • Inject 50 μl of Stop & Glo® Reagent wait 5″, read 10″ Check RLU Luciferase/RLU Renilla*1000

preactivated p38, sequence (Q16539 whole entry): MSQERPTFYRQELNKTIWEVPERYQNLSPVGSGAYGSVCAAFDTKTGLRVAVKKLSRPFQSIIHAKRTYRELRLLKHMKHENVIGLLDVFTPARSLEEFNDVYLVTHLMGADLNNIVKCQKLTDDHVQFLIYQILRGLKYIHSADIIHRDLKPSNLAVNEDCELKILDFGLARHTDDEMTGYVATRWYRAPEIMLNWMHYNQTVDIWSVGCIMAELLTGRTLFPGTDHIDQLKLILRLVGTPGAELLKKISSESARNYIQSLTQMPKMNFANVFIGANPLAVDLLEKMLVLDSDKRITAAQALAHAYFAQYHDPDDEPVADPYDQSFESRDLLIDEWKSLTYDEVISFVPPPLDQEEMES
ERK2, sequence (P28482 whole entry, species assumed): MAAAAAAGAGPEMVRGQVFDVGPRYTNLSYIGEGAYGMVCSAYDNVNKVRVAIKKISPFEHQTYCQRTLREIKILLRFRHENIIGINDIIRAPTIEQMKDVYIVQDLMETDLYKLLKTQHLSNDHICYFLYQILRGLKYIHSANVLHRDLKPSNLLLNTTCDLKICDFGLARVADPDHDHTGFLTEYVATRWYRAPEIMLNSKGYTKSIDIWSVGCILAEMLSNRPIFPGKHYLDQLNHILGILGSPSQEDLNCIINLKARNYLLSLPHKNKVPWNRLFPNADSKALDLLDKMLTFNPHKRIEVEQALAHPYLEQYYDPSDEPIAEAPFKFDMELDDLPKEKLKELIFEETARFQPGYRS
recombinant, pre-activated GST-JNK2, sequence (P45984 whole entry): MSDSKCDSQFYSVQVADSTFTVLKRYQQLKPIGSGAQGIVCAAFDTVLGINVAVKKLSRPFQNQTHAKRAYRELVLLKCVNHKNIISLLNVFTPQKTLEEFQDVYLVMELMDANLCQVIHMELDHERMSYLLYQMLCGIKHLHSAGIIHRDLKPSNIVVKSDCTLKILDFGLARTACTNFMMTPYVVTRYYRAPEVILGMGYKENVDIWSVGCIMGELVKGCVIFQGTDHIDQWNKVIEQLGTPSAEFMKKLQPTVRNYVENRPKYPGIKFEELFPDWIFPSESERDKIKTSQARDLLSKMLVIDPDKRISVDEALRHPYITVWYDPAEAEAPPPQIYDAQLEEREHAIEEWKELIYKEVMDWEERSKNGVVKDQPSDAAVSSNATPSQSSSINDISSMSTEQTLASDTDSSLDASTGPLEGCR
recombinant, pre-activated GST-JNK3, sequence (P53779 whole entry): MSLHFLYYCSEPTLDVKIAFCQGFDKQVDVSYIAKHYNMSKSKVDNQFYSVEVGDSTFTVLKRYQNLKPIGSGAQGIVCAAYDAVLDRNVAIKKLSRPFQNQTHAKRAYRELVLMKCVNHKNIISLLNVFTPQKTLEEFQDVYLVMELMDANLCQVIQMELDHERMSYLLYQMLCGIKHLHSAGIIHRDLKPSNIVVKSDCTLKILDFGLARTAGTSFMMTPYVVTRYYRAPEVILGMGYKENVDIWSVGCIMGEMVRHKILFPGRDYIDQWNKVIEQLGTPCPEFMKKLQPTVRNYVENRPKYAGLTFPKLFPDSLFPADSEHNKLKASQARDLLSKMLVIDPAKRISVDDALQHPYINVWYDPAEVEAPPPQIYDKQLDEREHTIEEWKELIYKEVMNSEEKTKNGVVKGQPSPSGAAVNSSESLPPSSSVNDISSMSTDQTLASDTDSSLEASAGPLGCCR

Row | IC50 [1] | IC50 [2] | IC50 [3] | melting point | Structure (SMILES) | also measured
1 | 950 nM | 2300 nM | > 30000 nM |  | CNc1nccc(C(C#N)c2nc3ccccc3s2)n1 (stereo not drawn) [Compound 15, 1,3-benzothiazol-2-yl[2-(methylamino)-4-pyrimidinyl]acetonitrile] | 
2 | 510 nM | 1800 nM | > 30000 nM |  | N#CC(c1ccnc(NCCO)n1)c1nc2ccccc2s1 (stereo not drawn) [Compound 23, 1,3-benzothiazol-2-yl {2-[(2-hydroxyethyl)amino]-4-pyrimidinyl}acetonitrile] | IC50 [4]: > 30000 nM
3 | 30 nM | 300 nM | > 30000 nM |  | COc1ccc(Oc2nccc(C(C#N)c3nc4ccccc4s3)n2)cc1 (stereo not drawn) [Compound 96, 1,3-benzothiazol-2-yl[2-(4-methoxyphenoxy)pyrimidin-4-yl]acetonitrile] | IC50 [4]: > 30000 nM
4 | 70 nM | 210 nM | > 30000 nM |  | N#CC(c1ccnc(NCCc2c[nH]cn2)n1)c1nc2ccccc2s1 (stereo not drawn) [Compound 10, 1,3-benzothiazol-2-yl(2-{[2-(1H-imidazol-4-yl)ethyl]amino}-4-pyrimidinyl)acetonitrile] | IC50 [4]: > 30000 nM
5 |  |  |  | 219 to 220 °C | Cn1cncc1CCNc1nccc(C(C#N)c2nc3ccccc3s2)n1 (stereo not drawn) (as salt: TFA) [Compound 49, 1,3-benzothiazol-2-yl(2-{[2-(1-methyl-1H-imidazol-5-yl)ethyl]amino}pyrimidin-4-yl)acetonitrile] | 
6 | 350 nM | 970 nM | > 30000 nM |  | CSc1nccc(C(C#N)c2nc3ccccc3s2)n1 (stereo not drawn) [Compound 4, 1,3-benzothiazol-2-yl[2-(methylsulfanyl)-4-pyrimidinyl]acetonitrile] | 
7 | 60 nM | 250 nM | > 30000 nM |  | N#CC(c1ccnc(OCc2ccccc2)n1)c1nc2ccccc2s1 (stereo not drawn) [Compound 80, 1,3-benzothiazol-2-yl[2-(benzyloxy)pyrimidin-4-yl]acetonitrile] | IC50 [4]: > 30000 nM
8 |  |  |  | 256 °C (dec.) | N#CC(c1ccnc(NCCc2ccccc2)n1)c1nc2ccccc2s1 (stereo not drawn) [Compound 27, 1,3-benzothiazol-2-yl {2-[(2-phenylethyl)amino]-4-pyrimidinyl}acetonitrile] | 
9 |  |  |  | 250 °C (dec.) | N#CC(c1ccnc(NCc2ccccn2)n1)c1nc2ccccc2s1 (stereo not drawn) (as salt: TFA) [Compound 29, 1,3-benzothiazol-2-yl{2-[(2-pyridinylmethyl)amino]-4-pyrimidinyl}acetonitrile] | 
10 |  |  |  |  | N#CC(c1ccnc(OCc2ccc(CN3CCOCC3)cc2)n1)c1nc2ccccc2s1 (stereo not drawn) [Compound 93, 1,3-benzothiazol-2-yl(2-{[4-(morpholin-4-ylmethyl)benzyl]oxy}pyrimidin-4-yl)acetonitrile] | inhibition at 10 µM [5]: > 50%
11 |  |  |  |  | N#CC(c1ccnc(NCCc2cccnc2)n1)c1nc2ccccc2s1 (stereo not drawn) [Compound 33, 1,3-benzothiazol-2-yl(2-{[2-(3-pyridinyl)ethyl]amino}-4-pyrimidinyl)acetonitrile] | inhibition at 10 µM [5]: > 50%
12 |  |  |  | 228 to 230 °C | N#CC(c1ccnc(NCCN2CCCCC2)n1)c1nc2ccccc2s1 (stereo not drawn) (as salt: TFA) [Compound 48, 1,3-benzothiazol-2-yl {2-[(2-piperidin-1-ylethyl)amino]pyrimidin-4-yl}acetonitrile] | 
13 | 290 nM | 500 nM | > 30000 nM |  | N#CC(c1ccnc(Cl)n1)c1nc2ccccc2s1 (stereo not drawn) [Compound 1, 1,3-benzothiazol-2-yl(2-chloro-4-pyrimidinyl)-acetonitrile] | 
14 |  |  |  | 247 °C (dec.) | N#CC(c1ccnc(NCCc2ccccn2)n1)c1nc2ccccc2s1 (stereo not drawn) (as salt: TFA) [Compound 28, 1,3-benzothiazol-2-yl(2-{[2-(2-pyridinyl)ethyl]amino}-4-pyrimidinyl)acetonitrile] | 
15 |  |  |  | 258 to 261 °C | N#CC(c1ccnc(NCCc2ccc(O)cc2)n1)c1nc2ccccc2s1 (stereo not drawn) [Compound 43, 1,3-benzothiazol-2-yl(2-{[2-(4-hydroxyphenyl)ethyl]amino}pyrimidin-4-yl)acetonitrile] | 
16 |  |  |  | 270 to 272 °C | N#CC(c1ccnc(N2CCCC2)n1)c1nc2ccccc2s1 (stereo not drawn) [Compound 26, 1,3-benzothiazol-2-yl[2-(1-pyrrolidinyl)-4-pyrimidinyl]acetonitrile] | 
17 |  |  |  |  | N#CC(c1ccnc(OCc2ccc(CN3CCCCC3)cc2)n1)c1nc2ccccc2s1 (stereo not drawn) [Compound 95, 1,3-benzothiazol-2-yl(2-{[4-(piperidin-1-ylmethyl)benzyl]oxy}pyrimidin-4-yl)acetonitrile] | inhibition at 10 µM [5]: > 50%
18 |  |  |  | 204 to 205 °C | CN(C)CCCNc1nccc(C(C#N)c2nc3ccccc3s2)n1 (stereo not drawn) (as salt: TFA) [Compound 47, 1,3-benzothiazol-2-yl(2-{[3-(dimethylamino)propyl]amino}pyrimidin-4-yl)acetonitrile] | 
19 | 105 nM | 450 nM | > 30000 nM |  | COc1nccc(C(C#N)c2nc3ccccc3s2)n1 (stereo not drawn) [Compound 102, 1,3-benzothiazol-2-yl(2-methoxy-4-pyrimidinyl)-acetonitrile] | 
